Structures are written as SMILES.

A word on the EC50: it is the concentration that produces a half-maximal response. A lower EC50 goes with a more potent agent.

This assay has as its target T1, human FXR (NR1H4) (Homo sapiens, UniProt Q96RI1).
T1 sequence (Q96RI1 1-486): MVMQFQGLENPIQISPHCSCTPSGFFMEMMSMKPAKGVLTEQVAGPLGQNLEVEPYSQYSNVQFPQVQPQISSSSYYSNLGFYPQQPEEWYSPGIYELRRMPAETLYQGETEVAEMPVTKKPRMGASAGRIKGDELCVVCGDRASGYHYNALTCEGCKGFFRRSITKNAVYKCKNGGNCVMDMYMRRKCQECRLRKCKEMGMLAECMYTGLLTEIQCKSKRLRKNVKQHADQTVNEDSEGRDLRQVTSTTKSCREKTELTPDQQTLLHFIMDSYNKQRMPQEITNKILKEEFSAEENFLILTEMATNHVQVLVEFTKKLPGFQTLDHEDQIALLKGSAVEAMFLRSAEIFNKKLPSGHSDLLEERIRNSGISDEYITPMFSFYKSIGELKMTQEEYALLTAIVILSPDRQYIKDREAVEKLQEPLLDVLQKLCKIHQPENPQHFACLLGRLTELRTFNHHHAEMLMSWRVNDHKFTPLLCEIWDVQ
The assay is described as follows: Human FXR (NR1H4) Assay (Gal4 promoter driven luciferase reporter, Indigo Bioscience kit IB00601). It is filed as cell-based. As to conditions: FXR agonistic potency; CHO reporter cells expressing human NR1H4; 22 hours incubation; luciferase readout. From the text: Determination of a ligand mediated Gal4 promoter driven transactivation to quantify ligand binding mediated activation of FXR. FXR Reporter Assay kit purchased from Indigo Bioscience (Catalogue number: IB00601) to determine the potency and efficacy of compound developed by Enanta that can induce FXR activation. The principle application of this reporter assay system is to quantify functional activity of human FXR. The assay utilizes non-human mammalian cells, CHO (Chinese hamster ovary) cells engineered to express human NR1H4 protein (referred to as FXR). Reporter cells also incorporate the cDNA encoding beetle luciferase which catalyzes the substrates and yields photon emission. Luminescence intensity of the reaction is quantified using a plate-reading luminometer, Envision. Reporter Cells include the luciferase reporter gene functionally linked to an FXR responsive promoter. Thus, quantifying changes in luciferase expression in the treated reporter cells provides a sensitive surrogate measure of the changes in FXR activity. […] The assay is according to the manufacturer's instructions. In brief, the assay was performed in white, 96 well plates using final volume of 100 uL containing cells with different doses of compounds. Retrieve Reporter Cells from −80° C. storage. Perform a rapid thaw of the frozen cells by transferring a 10 ml volume of 37° C. cell recovery medium into the tube of frozen cells. Recap the tube of Reporter Cells and immediately place it in a 37° C. water bath for 5-10 minutes. Retrieve the tube of Reporter Cell Suspension from the water bath. Sanitize the outside surface of the tube with a 70% alcohol swab, and then transfer it into the cell culture hood. Dispense 90 μl of cell suspension into each well of the 96-well Assay Plate. Transfer the plate into 37° C. incubator, allowing the cells adherent to the bottom of the well. Dilute compounds in Dilution Plate (DP), and administrate to cells at Assay Plate (AP). DMSO content of the samples was kept at 0.2%. Cells were incubated for additional 22 hours before luciferase activities were measured. Thirty minutes before intending to quantify FXR activity, remove Detection Substrate and Detection Buffer from the refrigerator and place them in a low-light area so that they may equilibrate to room temperature. Remove the plate's lid and discard all media contents by ejecting it into an appropriate waste container. Gently tap the inverted plate onto a clean absorbent paper towel to remove residual droplets. Cells will remain tightly adhered to well bottoms. Add 100 μl of luciferase detection reagent to each well of the assay plate. Allow the assay plate to rest at room temperature for at least 5 minutes following the addition of LDR. Set the instrument (Envision) to perform a single 5 second “plate shake” prior to reading the first assay well. Read time may be 0.5 second (500 mSec) per well.
`CC[C@H]1[C@@H](O)[C@@H]2[C@H](CC[C@]3(C)[C@@H]([C@H](C)COC(=O)NS(=O)(=O)c4ccc(OC5CCCCC5)cc4)CC[C@@H]23)[C@@]2(C)CC[C@@H](O)C[C@@H]12` [Example 11]: the EC50 is 1 to 10 nM. Take `CC[C@H]1[C@@H](O)[C@@H]2[C@H](C[C@H](O)[C@]3(C)[C@@H]([C@H](C)COC(=O)NS(=O)(=O)c4ccc5c(c4)CCC(C)(C)O5)CC[C@@H]23)[C@@]2(C)CC[C@@H](O)C[C@@H]12` [Example 32]: the EC50 is more than 100 nM. Compound `CC[C@H]1[C@@H](O)[C@@H]2[C@H](CC[C@]3(C)[C@@H]([C@H](C)COC(=O)NS(=O)(=O)c4ccc(OC(C)C)c(C)c4)CC[C@@H]23)[C@@]2(C)CC[C@@H](O)C[C@@H]12` [Example 13] came in with an EC50 of less than 1 nM.

`CCCOc1ccc(S(=O)(=O)NC(=O)OC[C@@H](C)[C@H]2CC[C@H]3[C@@H]4[C@H](O)[C@H](CC)[C@@H]5C[C@H](O)CC[C@]5(C)[C@H]4CC[C@]23C)cc1` [Example 15] showed an EC50 of less than 1 nM. As for `CC[C@H]1[C@@H](O)[C@@H]2[C@H](CC[C@]3(C)[C@@H]([C@H](C)COC(=O)NS(=O)(=O)c4ccc(OC5CCCC5)cc4)CC[C@@H]23)[C@@]2(C)CC[C@@H](O)C[C@@H]12` [Example 9], the EC50 was less than 1 nM. In turn, `CC[C@H]1[C@@H](O)[C@@H]2[C@H](CC[C@]3(C)[C@@H]([C@H](C)COC(=O)NS(=O)(=O)c4ccc(OC(C)(C)C)cc4)CC[C@@H]23)[C@@]2(C)CC[C@@H](O)C[C@@H]12` [Example 24] showed an EC50 of less than 1 nM. Then `CC[C@H]1[C@@H](O)[C@@H]2[C@H](CC[C@]3(C)[C@@H]([C@H](C)COC(=O)NS(=O)(=O)c4ccc5c(c4)CCC(C)(C)O5)CC[C@@H]23)[C@@]2(C)CC[C@@H](O)C[C@@H]12` [Example 5], with less than 1 nM; and `CC[C@H]1[C@@H](O)[C@@H]2[C@H](CC[C@]3(C)[C@@H]([C@H](C)COC(=O)NS(=O)(=O)c4ccc(OC5CC5)cc4)CC[C@@H]23)[C@@]2(C)CC[C@@H](O)C[C@@H]12` [Example 7], with less than 1 nM; and `CC[C@H]1[C@@H](O)[C@@H]2[C@H](CC[C@]3(C)[C@@H]([C@H](C)COC(=O)NS(=O)(=O)c4cnc(OC(C)C)nc4)CC[C@@H]23)[C@@]2(C)CC[C@@H](O)C[C@@H]12` [Example 28], with 10 to 100 nM. For the compound `CC[C@H]1[C@@H](O)[C@@H]2[C@H](CC[C@]3(C)[C@@H]([C@H](C)COC(=O)NS(=O)(=O)c4ccc5c(c4)CC(C)(C)O5)CC[C@@H]23)[C@@]2(C)CC[C@@H](O)C[C@@H]12` [Example 6], the EC50 was less than 1 nM. The compound `CC[C@H]1[C@@H](O)[C@@H]2[C@H](CC[C@]3(C)[C@@H]([C@H](C)COC(=O)NS(=O)(=O)c4ccc(OC5(C)CC5)cc4)CC[C@@H]23)[C@@]2(C)CC[C@@H](O)C[C@@H]12` [Example 29] had an EC50 of less than 1 nM.

As to `C[C@H](COC(=O)NS(=O)(=O)c1ccc(OC(C)(C)C)cc1)[C@H]1CC[C@H]2[C@@H]3[C@H](O)C[C@@H]4C[C@H](O)CC[C@]4(C)[C@H]3CC[C@]12C` [Example 2], the EC50 was 10 to 100 nM. `CC[C@H]1[C@@H](O)[C@@H]2[C@H](CC[C@]3(C)[C@@H]([C@H](C)COC(=O)NS(=O)(=O)c4ccc(O[C@@H](C)CC)cc4)CC[C@@H]23)[C@@]2(C)CC[C@@H](O)C[C@@H]12` [Example 16]: the EC50 was less than 1 nM. `CC[C@H]1[C@@H](O)[C@@H]2[C@H](CC[C@]3(C)[C@@H]([C@H](C)COC(=O)NS(=O)(=O)c4ccc(O[C@H](C)CC)cc4)CC[C@@H]23)[C@@]2(C)CC[C@@H](O)C[C@@H]12` [Example 17] showed an EC50 of less than 1 nM. `CCCCOc1ccc(S(=O)(=O)NC(=O)OC[C@@H](C)[C@H]2CC[C@H]3[C@@H]4[C@H](O)[C@H](CC)[C@@H]5C[C@H](O)CC[C@]5(C)[C@H]4CC[C@]23C)cc1` [Example 21] came in with an EC50 of 1 to 10 nM.

Take `CC[C@H]1[C@@H](O)[C@@H]2[C@H](CC[C@]3(C)[C@@H]([C@H](C)COC(=O)NS(=O)(=O)c4ccc(OC5(C)CCCC5)cc4)CC[C@@H]23)[C@@]2(C)CC[C@@H](O)C[C@@H]12` [Example 10]: the EC50 is less than 1 nM. Turning to `CC[C@H]1[C@@H](O)[C@@H]2[C@H](CC[C@]3(C)[C@@H]([C@H](C)COC(=O)NS(=O)(=O)c4ccc(OCC(C)(C)C)cc4)CC[C@@H]23)[C@@]2(C)CC[C@@H](O)C[C@@H]12` [Example 20], the EC50 is 1 to 10 nM. Then `CC[C@H]1[C@@H](O)[C@@H]2[C@H](CC[C@]3(C)[C@@H]([C@H](C)COC(=O)NS(=O)(=O)c4ccc(OC5(C)CCCCC5)cc4)CC[C@@H]23)[C@@]2(C)CC[C@@H](O)C[C@@H]12` [Example 12], with less than 1 nM; and `CC[C@H]1[C@@H](O)[C@@H]2[C@H](CC[C@]3(C)[C@@H]([C@H](C)COC(=O)NS(=O)(=O)c4ccc(OC(C)(C)C)cn4)CC[C@@H]23)[C@@]2(C)CC[C@@H](O)C[C@@H]12` [Example 22], with less than 1 nM.

The compound `CC[C@H]1[C@@H](O)[C@@H]2[C@H](CC[C@]3(C)[C@@H]([C@H](C)COC(=O)NS(=O)(=O)c4cc(C)c(OC(C)C)c(C)c4)CC[C@@H]23)[C@@]2(C)CC[C@@H](O)C[C@@H]12` [Example 18] displayed an EC50 of less than 1 nM. Regarding `CC(C)Oc1ccc(S(=O)(=O)NC(=O)OC[C@@H](C)[C@H]2CC[C@H]3[C@@H]4[C@H](O)C[C@@H]5C[C@H](O)CC[C@]5(C)[C@H]4CC[C@]23C)cc1` [Example 3], the EC50 was more than 100 nM. The compound `CC[C@H]1[C@@H](O)[C@@H]2[C@H](CC[C@]3(C)[C@@H]([C@H](C)COC(=O)NS(=O)(=O)c4ccc(OC5CCC5)cc4)CC[C@@H]23)[C@@]2(C)CC[C@@H](O)C[C@@H]12` [Example 8] yielded a concentration for a half-maximal effect (EC50) of less than 1 nM. Then `CC[C@H]1[C@@H](O)[C@@H]2[C@H](CC[C@]3(C)[C@@H]([C@H](C)COC(=O)NS(=O)(=O)c4ccc(Oc5ccccc5)cc4)CC[C@@H]23)[C@@]2(C)CC[C@@H](O)C[C@@H]12` [Example 25], with more than 100 nM; and `CCOc1ccc(S(=O)(=O)NC(=O)OC[C@@H](C)[C@H]2CC[C@H]3[C@@H]4[C@H](O)[C@H](CC)[C@@H]5C[C@H](O)CC[C@]5(C)[C@H]4CC[C@]23C)cc1` [Example 14], with less than 1 nM; and `CC[C@H]1[C@@H](O)[C@@H]2[C@H](CC[C@]3(C)[C@@H]([C@H](C)COC(=O)NS(=O)(=O)c4ccc(OC(F)(F)C(F)(F)F)cc4)CC[C@@H]23)[C@@]2(C)CC[C@@H](O)C[C@@H]12` [Example 30], with 1 to 10 nM. `CC[C@H]1[C@@H](O)[C@@H]2[C@H](C[C@H](O)[C@]3(C)[C@@H]([C@H](C)COC(=O)NS(=O)(=O)c4ccc(OC(C)C)cc4)CC[C@@H]23)[C@@]2(C)CC[C@@H](O)C[C@@H]12` [Example 31] registered an EC50 of more than 100 nM.

Values taken from patent US10472386B2, “Bile acid derivatives as FXR agonists and methods of use thereof” (priority 2017, dated 2019).
